Data on 13 molecules can be found in US20050202423A1, “Method for identifying compounds or lead structures against rna target motifs and rna/protein interactions” (priority 2000, published 2005).

For data set [1], the target named is T1, Rev protein (Human immunodeficiency virus type 1 group M subtype B, UniProt P04618).
T1 construct: the intact Rev protein and by the Rev peptide
Briefly: Surface plasmon resonance, Rev protein. The class given is binding, HIV. Conditions: 100 μM antibiotic, 25° C. The procedure:
(§1) 20 μl 100 μM antibiotic in test buffer was injected at 25° C., rate 10 μl/s.
(§2) Surface plasmon resonance studies were performed with a Biocore 3000 instrument in the automatic mode.

The target in data set [2] is T2, Rev peptide (Human immunodeficiency virus type 1 group M subtype B, UniProt P04618).
T2 construct: includes aminoacids 34 to 50 of the Rev protein
Briefly: Surface plasmon resonance, Rev peptide. The class given is binding, HIV. As to conditions: 100 μM antibiotic, 25° C. As for the experimental part: as §1, §2

Data set [3] deals with RRR-RNA. Briefly: Surface plasmon resonance, RRR-RNA surface. The data set is classed as binding. As to conditions: 100 μM antibiotic, 25° C. The procedure:
20 μl 100 μM antibiotic in test buffer was injected at 25° C., rate 10 μl/s. […] There is no binding to RRR-derivatized surfaces detectable. Coumermycin only binds to Rev, but not to ribozymes. FIG. 13b illustrates the interaction between novobiocin, rosamicin, griseofulvin, streptolydigin and patulin with surfaces derivatized with Rev protein.
Surface plasmon resonance studies were performed with a Biocore 3000 instrument in the automatic mode. Rev protein and peptide surfaces were prepared by injection of 100 μM solutions in 60 mM NaOAc, pH 5.7 on EDC/NHS-activated CM5-Chips, which gave 1800 RU immobilized peptide and 5000 RU protein.
On the technique in general: SPR reads the build-up and loss of mass on a sensor chip optically.

The subject of data set [4] is hammerhead ribozyme HHR. As to the kind of experiment: HHR cleavage reaction (internal control, FRET). The data set is classed as biochemical. As for the experimental part:
(§3) Cleavage reactions with multiple turnover were performed at 32° C. in a test buffer containing 50 mM Tris (pH 7.9) and 25 mM NaCl. The total volume of the reactions was 50 μl in plates with 96 flat bottom wells. The fluorescence measurements were performed at an excitation wavelength of 489 nm, FAM emission at 520 nm and with the fluorescence detector Ascent Fluoroscan FL, as described by Jenne, A. et al., Rapid identification and characterization of hammerhead-ribozyme inhibitors using fluorescence-based technology, Nat Biotechnol 19, 56-61 (2001). Ribozyme (10 nM) and FRET-labeled substrate (200 nM) were first incubated in test buffer at room temperature for 5 min, followed by optional addition of Rev and/or antibiotic. The reactions were then incubated for 5 min at 32° C. and started by the addition of MgCl2 to a final concentration of 8 mM, using the dispensing function of the fluorometer. Negative controls were always included for reactions without ribozyme and were subtracted after the measurements.
(§4) Two different screening experiments were performed, one using the RRR reporter construct and the other using AIR. […] Each reaction which contained antibiotics also contained Rev peptide. For each antibiotic, three different reactions were performed: HHR, reporter construct (RRR or AIR), negative controls, which only contained antibiotic and Rev and substrate. The antibiotic concentrations were 100 μM in each case. After subtraction of the negative control, the rise in fluorescence in the first five minutes, corresponding to the initial rate of reaction, was divided by the rise in fluorescence in the standard reaction without antibiotic, containing the active state of the ribozyme (see also FIG. 10).

In data set [5] the target is T3, Rev peptide / RRR (Human immunodeficiency virus type 1 group M subtype B, UniProt P04618).
T3 construct: includes aminoacids 34 to 50 of the Rev protein
As to the kind of experiment: RRR screen (screen 1) of antibiotics: restoration of cleavage activity. The data set is classed as biochemical, HIV. As to conditions: 100 μM, 1 μM Rev-peptide. The procedure: as §3, with “Negative controls were always included for reactions without ribozyme and were subtracted after the measurements.” left out
Two different screening experiments were performed, one using the RRR reporter construct and the other using AIR. […] After subtraction of the negative control, the rise in fluorescence in the first five minutes, corresponding to the initial rate of reaction, was divided by the rise in fluorescence in the standard reaction without antibiotic, containing the active state of the ribozyme (see also FIG. 10). […]

The target in data set [6] is T4, Rev peptide / AIR (Human immunodeficiency virus type 1 group M subtype B, UniProt P04618).
T4 construct: includes aminoacids 34 to 50 of the Rev protein
As to the kind of experiment: AIR screen (screen 2) of antibiotics: inhibition of Rev-activated AIR. The class given is biochemical, HIV. Conditions: for AIR screen outcome (inhibition of AIR relative to HHR): 100 μM antibiotic, 250 nM Rev peptide. The procedure: as §3, §4
[…]. […] […].

The target of data set [7] is reverse transcriptase (Human immunodeficiency virus type 1 group M subtype B, UniProt P04585). As to the kind of experiment: Standard transcriptase assay (specificity control). The class given is biochemical, HIV-1. As to conditions: 2.5 μM. As for the experimental part:
As a control of the target protein reverse transcriptase, another nucleic acid binding protein from HIV-1 was tested, to check the specificity of the identified Rev-binding antibiotics.

The test system of data set [8] is RRR. As to the kind of experiment: Dependence of RRR cleavage activity on Rev (FRET ribozyme reaction). The data set is classed as biochemical. As to conditions: for IC50: read-out: K inh (inhibition of RRR at the half maximal concentration of Rev). The procedure: (§5) Negative control reactions without ribozymes were subtracted.
as §3

The subject of data set [9] is AIR. Briefly: Dependence of AIR cleavage activity on Rev (FRET ribozyme reaction). The class given is biochemical. As to conditions: for EC50: read-out: Kact (activation of AIR). As for the experimental part: as §5, §3
In data set [10] the target is Rev protein (HIV-1, UniProt P04618 P04618:1-116). Briefly: inhibition; K inh of ribozyme; 8 mM MgCl2, 32 C. As to conditions: tags: full-length; label: biotin (SPR surface) or 5'-32P (filter); hammerhead ribozyme.
Data set [11] has as its target T5, Rev protein (HIV-1, UniProt P04618 P04618:1-116). As to the kind of experiment: cleavage_in_vitro; K act of ribozyme; 8 mM MgCl2, 32 C. As to conditions: tags: full-length.
Data set [12] addresses T5, Rev protein. As to the kind of experiment: competition; 2 uM RNA competes with IRK-1 for 200 nM Rev; 10 mM HEPES pH 7.4, 100 mM NaCl, 10 mM MgCl2. Conditions: tags: full-length.

Like-named read-outs stand apart in the source and are kept apart here.

For the molecule coumermycin A1, the “binding to surface derivatized with Rev protein” value (“binding … with Rev protein” below) in data set [1] was “binding”. Further, the “binding to surface derivatized with Rev peptide” value in [2] is recorded as “binding”. The “binding to RRR-derivatized surface” value in [3] is “no binding”. Moreover, the “effect on wildtype HHR” value in data set [4] (100 μM with 1 μM Rev-peptide) is “hardly affected”. Besides, the “reversal of the action of Rev on RRR” value in [5] is “fully reversed”. In [6], the “AIR screen outcome (inhibition of AIR relative to HHR)” value is recorded as “Rev inhibitors”. Further, the “reversal of the action of Rev on AIR” value in [6] (100 μM, 250 nM Rev) was “fully reversed”.

As to `Nc1ccn([C@H]2CC[C@@H](COP(=O)(O)OP(=O)(O)OP(=O)(O)O)O2)c(=O)n1` [ddCTP], in data set [7], the “inhibition of reverse transcriptase” value was “total inhibition”.

For the molecule “Rev peptide: Rev peptide, which includes aminoacids 34 to 50 of the Rev protein (TRQARRNRRRRWRERQR; UniProt P04618 34-50, looked up, fragment)”, in [8] (1 μM Rev-peptide), the “effect of Rev on ribozyme RRR” value is “inhibition”. The IC50 in data set [8] (Rev peptide) is 464 nM. Further, in data set [9], the “concentration above which AIR is inhibited” value is “above 800 nM” and the EC50 turned out to be 170 nM. Further, the “effect of Rev on AIR” value in [9] (250 nM Rev) is listed as “activation”. Besides, in data set [4], the “concentration above which HHR is inhibited” value is “more than 1 μM”. Besides, the “initial activity of HHR” value in data set [4] (1 μM Rev) is given as 93%. Besides, in [4] (1 μM Rev-peptide), the “effect of Rev on wildtype HHR” value is listed as “hardly affected”. In addition, the “concentration above which HHR is inhibited” value in data set [4] (listed as Rev) was “above 1 μM”.

On to `C=C(NC(=O)c1csc(-c2nc3c(cc2O)-c2nc(cs2)C(=O)NC(C(C)O)C(=O)N/C(=C\C)c2nc(cs2)C(=O)NC2CC(O)C(=O)OCc4cccc5[nH]c(c(C)c45)C(=O)SCC(NC(=O)c4csc2n4)c2nc-3cs2)n1)C(N)=O` (centres unmarked) [nosiheptide], for which the “AIR screen outcome (inhibition of AIR relative to HHR)” value in [6] is on record as “Rev inhibitors”.

For the molecule `CO[C@@H]1[C@@H](OC(N)=O)[C@@H](O)[C@H](Oc2ccc3c(O)c(NC(=O)c4ccc(O)c(CC=C(C)C)c4)c(=O)oc3c2C)OC1(C)C` [novobiocin], the “binding … with Rev protein” value in [1] is “exhibited binding”.

As for `CNC(=O)[C@@H](C)[C@H]1C(=O)/C(=C(O)/C=C/C(C)=C/[C@@H](C)[C@H]2O[C@@]3(C)O[C@H](C=C[C@@]34CO4)[C@@H]2C)C(=O)N1[C@@H]1CC[C@H](O)[C@H](C)O1` [streptolydigin], in data set [1], the “binding … with Rev protein” value was “Only the antibiotics novobiocin and patulin, which were identified in the course of screening, exhibited binding to Rev”.

As to `COC1=CC(=O)C[C@@H](C)[C@]12Oc1c(Cl)c(OC)cc(OC)c1C2=O` [griseofulvin], the “binding … with Rev protein” value in [1] is “Only the antibiotics novobiocin and patulin, which were identified in the course of screening, exhibited binding to Rev”.

For `O=C1C=C2C(=CCOC2O)O1` (centres unmarked) [patulin], the “binding … with Rev protein” value in data set [1] is listed as “exhibited binding”. In addition, the “AIR screen outcome (inhibition of AIR relative to HHR)” value in data set [6] is “Rev inhibitors”.

As for Rev protein: intact Rev protein of HIV, in data set [8], the “concentration above which RRR is inhibited” value is “above 1 μM”. For the same molecule, the IC50 in data set [8] (Rev protein) was 1700 nM. In data set [9], the “concentration at which AIR is still activated” value was “above 5 μM”, the “inhibition of AIR by high concentrations” value was “no observed inhibition” and the EC50 is 192 nM.

`CC[C@H]1OC(=O)C[C@@H](O)[C@H](C)[C@@H](O[C@@H]2O[C@H](C)C[C@H](N(C)C)[C@H]2O)[C@@H](CC=O)C[C@@H](C)C(=O)/C=C/[C@]2(C)O[C@H]2[C@@H]1C` [rosamicin]: the “binding … with Rev protein” value in data set [1] is “Only the antibiotics novobiocin and patulin, which were identified in the course of screening, exhibited binding to Rev”.

B1: RRR (Rev-responsive ribozyme, RBE in stem II) (ssRNA)
RNA: GGGUCCUCUGAUGAGCUCUGGGCGCAGCUUCGGCUGACGGUACUUGCGAAACUCGU
Turning to B1, the “apparent K (half saturation)” value in [10] came to 1700 nM.

B2: AIR (aptamer-inhibited ribozyme) (ssRNA)
RNA: GGGACUCGCUUCGGCUUGAGAUACCAAAAAGGGUCCUCUGAUGAGGCCGUUAGGCCGAAACUCGU
On to B2, for which the “apparent K (half saturation)” value in data set [11] amounted to 192 nM.

Take GGGAGGUGGACUCCAGCUUCGGCUGUUGAGAUACACC (ssRNA) [Seq 5]: the binding result in [12] is listed as “binds”.
